From US6258790A, “Antisense modulation of integrin α4 expression” (Isis Pharmaceuticals, Inc., priority 1999, dated 2001) come the findings set out here.

Some results are limits rather than exact numbers.

For this data set, the system named is human integrin α4. Put plainly: Inhibition of human integrin α4 protein levels by antisense oligonucleotides (LIPOFECTIN, flow cytometry with CD49d-FITC) in A375 melanoma cells. In kind it is cell-based. Conditions: for inhibition (Example 11): Example 11 assay; for % CONTROL 48 hr / % INHIB 48 hr / % CONTROL 72 hr / % INHIB 72 HR: Table 2, A375. The text has this:
Integrin α4 protein levels can be quantitated in a variety of ways well known in the art, such as immunoprecipitation, Western blot analysis (immunoblotting), ELISA or fluorescence-activated cell sorting (FACS). Antibodies directed to integrin α4 can be identified and obtained from a variety of sources, such as the MSRS catalog of antibodies (Aerie Corporation, Birmingham, Mich.), or can be prepared via conventional antibody generation methods.
Target sites are indicated by nucleotide numbers, as given in the sequence source reference (GenBank accession no. L12002), to which the oligonucleotide binds. All compounds in Table 1 are 18 nucleotides in length, with a phosphorothioate backbone and a centered 10-base deoxynucleotide gap flanked by 2'-methoxyethoxy (2'MOE) wings. Human A375 melanoma cells (American Type Culture Collection, Manassas, Va.) were plated at 2000 cells/cm^2 two days before oligonucleotide treatment. Cells were treated with oligonucleotides at a dose of 200 nM oligonucleotide and 6 ug/ml LIPOFECTIN for four hours. Cells were incubated overnight and harvested with 2 mM EDTA in PBS. Cells were washed in 2% bovine serum albumin, 0.2% sodium azide in D-PBS at 4° C. Cells were centrifuged at 200×g, and the supernatant was decanted. […] Antibodies were incubated with the cells for 30 minutes at 4° C. in the dark, under gentle agitation. Cells were washed again as above and then resuspended in 0.3 ml of FacsFlow buffer with 0.5% formaldehyde. Cells were analyzed on Becton Dickinson FACScan. Results are expressed as percentage of control expression based on mean fluorescence intensity.
Cells were harvested with trypsin at 48 and 72 hours after oligonucleotide treatment and stained with 2 ug/ml CD49d-FITC as in the previous example.
Where backbones are mixed, linkages are shown as "s" for phosphorothioate (P=S or PS) and "o" for phosphodiester (P=O or PO). Where target region is indicated as `M62841,` oligonucleotides are targeted to the promotor region whose sequence is described in GenBank Accession No. M62841. Remaining oligonucleotides are targeted to the sequence described in Genbank Accession No. L12002 and their target sites on the L12002 sequence are indicated.
Target sites refer to nucleotide numbers on the target sequence (GenBank Accession No. L12002) to which the oligonucleotides hybridize.
Oligonucleotides were synthesized as "gapmers" consisting of a 9-nucleotide region of deoxynucleotides flanked by three 2'-O-methoxyethyl(2'-MOE) nucleotides on the 5' end and eight 2'-MOE nucleotides on the 3' end. 2'-MOE nucleotides are shown in bold in the table. Oligonucleotides were synthesized with phosphorothioate backbones throughout, and all cytosines are 5-methylcytosines.
Background: A flow cytometer gives signals particle by particle.

The mark [1] stands for this setting: Table 1, A375 cells, 200 nM oligonucleotide, 6 ug/ml LIPOFECTIN

Regarding “24473 (TCAGGGTGGCTTAAAGAA; chemistry not given here) [compound 24473]”, the “inhibition (Example 11)” value (dose not stated) was at least 40%. Besides, the “% Control (integrin α4 protein)” value under setting [1] is on record as 53%. Moreover, the “% CONTROL 48 hr” value runs as follows: (50 nM) 77%; (100 nM) 49%; (200 nM) 39%; (400 nM) 42%. The “% INHIB 48 hr” value (50 nM) is 23%, the “% INHIB 48 hr” value (100 nM) came to 51%, the “% INHIB 48 hr” value (200 nM) was found to be 61% and the “% INHIB 48 hr” value (400 nM) stood at 58%. Besides, the “% CONTROL 72 hr” value was found to be 85% (50 nM), 77% (100 nM), 61% (200 nM) and 56% (400 nM). Further, the “% INHIB 72 HR” value runs as follows: (50 nM) 35%; (100 nM) 23%; (200 nM) 39%; (400 nM) 44%. The “% Control” value runs as follows: (Table 6, 10 nM) 103%; (Table 6, 30 nM) 92%; (Table 6, 100 nM) 81%; (Table 6, 300 nM) 47%. The “% Inhib.” value was 19% (Table 6, 100 nM) and 53% (Table 6, 300 nM (highest dose)).
“24474 (ATCCATTTTCAACACAGT; chemistry not given here) [compound 24474]”: under setting [1], the “% Control (integrin α4 protein)” value is given as 71% and the “% Inhib (integrin α4 protein)” value was 29%.
With “24475 (GCCCTTATATGAGAAACA; phosphorothioate, 2'-MOE/deoxy, further chemistry not given here) [compound 24475]”, where the note is “Example 10 assay, dose not stated”, the “inhibition (Example 10)” value was at least 40%. Moreover, the “% Control (integrin α4 protein)” value under setting [1] is on record as 48%. In addition, the “% CONTROL 48 hr” value (50 nM) came to 60%, the “% CONTROL 48 hr” value (100 nM) worked out at 31%, the “% CONTROL 48 hr” value (200 nM) was found to be 30% and the “% CONTROL 48 hr” value (400 nM) is on record as 39%. Besides, the “% INHIB 48 hr” value reads like this: (50 nM) 40%; (100 nM) 69%; (200 nM) 70%; (400 nM) 61%. Besides, the “% CONTROL 72 hr” value by setting is: (50 nM) 69%; (100 nM) 44%; (400 nM) 52%. Moreover, the “% INHIB 72 HR” value is, setting by setting: (50 nM) 31%; (100 nM) 56%; (400 nM) 48%. The “% Control” value by setting is: (Table 4, 10 nM) 97%; (Table 4, 30 nM) 73%; (Table 4, 100 nM) 84%; (Table 4, 300 nM) 55%. The “% Inhib.” value is, setting by setting: (Table 4, 30 nM) 27%; (Table 4, 100 nM) 16%; (Table 4, 300 nM (highest dose)) 45%.
For the substance “24476 (CAATTTGAAAGAAGTCCT; chemistry not given here) [compound 24476]”, the “% Control (integrin α4 protein)” value under setting [1] came out at 99%.
Regarding “24477 (TCCATTCTCTCAATTTGA; chemistry not given here) [compound 24477]”, the “inhibition (Example 11)” value (dose not stated) is at least 40%. Further, under setting [1], the “% Control (integrin α4 protein)” value is reported as 43%. The “% CONTROL 48 hr” value (50 nM) is listed as 56%, the “% CONTROL 48 hr” value (100 nM) amounted to 47%, the “% CONTROL 48 hr” value (200 nM) was determined as 34% and the “% CONTROL 48 hr” value (400 nM) stood at 35%. Also, the “% INHIB 48 hr” value (50 nM) worked out at 44%, the “% INHIB 48 hr” value (100 nM) is reported as 53%, the “% INHIB 48 hr” value (200 nM) is listed as 66% and the “% INHIB 48 hr” value (400 nM) was 65%. For the same substance, the “% CONTROL 72 hr” value reads like this: (50 nM) 72%; (100 nM) 67%; (200 nM) 44%; (400 nM) 53%. Besides, the “% INHIB 72 HR” value was 28% (50 nM), 33% (100 nM), 56% (200 nM) and 47% (400 nM). Further, the “% Control” value (Table 6, 10 nM) is 83%; the “% Control” value (Table 6, 30 nM) is 80%; the “% Control” value (Table 6, 100 nM) is on record as 63%; the “% Control” value (Table 6, 300 nM) was determined as 33%. Moreover, the “% Inhib.” value (Table 6, 10 nM) is recorded as 17%; the “% Inhib.” value (Table 6, 30 nM) amounted to 20%; the “% Inhib.” value (Table 6, 100 nM) was 37%; the “% Inhib.” value (Table 6, 300 nM (highest dose)) worked out at 67%.
